# Biological target: purified human MMP-12 enzyme (Homo sapiens, UniProt P39900)
# Test: MMP-12 FRET assay
# Assay type: biochemical
# Settings: substrate 20 μM, room temperature
# Summary of the method: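 Initial fluorescence rate (325/395 nm) of cleavage of MCA-Pro-Leu-Gly-Leu-Dpa(DNP)-Ala-Arg, 20 μM final, was followed for 30 min at room temperature after a 30 min enzyme–compound preincubation. Buffer: 50 mM HEPES pH 7.4, 100 mM NaCl, 5 mM CaCl2, 0.005% Brij-35, with 10% final DMSO. IC50 came from a Hill-type fit of rate versus inhibitor concentration.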
# purified human MMP-12 enzyme, sequence (P39900 106-470): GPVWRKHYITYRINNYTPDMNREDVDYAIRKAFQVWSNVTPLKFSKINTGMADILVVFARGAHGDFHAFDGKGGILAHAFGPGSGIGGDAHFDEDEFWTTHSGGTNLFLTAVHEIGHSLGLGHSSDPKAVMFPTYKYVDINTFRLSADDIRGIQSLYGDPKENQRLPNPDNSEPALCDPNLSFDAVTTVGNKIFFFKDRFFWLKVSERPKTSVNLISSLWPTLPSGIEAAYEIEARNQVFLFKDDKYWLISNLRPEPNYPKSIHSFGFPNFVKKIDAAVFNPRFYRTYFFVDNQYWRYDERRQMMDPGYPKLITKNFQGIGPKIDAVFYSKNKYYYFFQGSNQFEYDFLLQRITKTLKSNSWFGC
row,SMILES,IC50
1,"CC(C)[C@H](NS(=O)(=O)c1ccc2c(c1)oc1ccc(-c3nc4ccc(Cl)cc4s3)cc12)C(=O)O [Compound 203, (S)-2-(8-(6-chlorobenzo[d]thiazol-2-yl)dibenzo[b,d]furan-3-sulfonamido)-3-methylbutanoic acid]",4.1 nM
2,"Cc1nc(CC(C)C)sc1-c1ccc2oc3cc(S(=O)(=O)N[C@H](C(=O)O)C(C)C)ccc3c2c1 [Compound 204, (S)-2-(8-(2-isobutyl-4-methylthiazol-5-yl)dibenzo[b,d]furan-3-sulfonamido)-3-methylbutanoic acid]",13 nM
3,"CC(C)[C@H](NS(=O)(=O)c1ccc2c(c1)oc1ccc(-c3c(C(F)(F)F)n[nH]c3-c3ccccc3)cc12)C(=O)O [Compound 206, (S)-3-methyl-2-(8-(5-phenyl-3-(trifluoromethyl)-1H-pyrazol-4-yl)dibenzo[b,d]furan-3-sulfonamido)butanoic acid]",110 nM
4,"CC(C)[C@H](NS(=O)(=O)c1ccc2c(c1)oc1ccc(-c3ccc(-c4nnn[nH]4)s3)cc12)C(=O)O [Compound 207, (S)-2-(8-(5-(1H-tetrazol-5-yl)thiophen-2-yl)dibenzo[b,d]furan-3-sulfonamido)-3-methylbutanoic acid]",8.4 nM
5,"COc1ccc2nc(-c3ccc4oc5cc(S(=O)(=O)N[C@H](C(=O)O)C(C)C)ccc5c4c3)sc2c1 [Compound 208, (S)-2-(8-(6-methoxybenzo[d]thiazol-2-yl)dibenzo[b,d]furan-3-sulfonamido)-3-methylbutanoic acid]",2.7 nM
6,"CC(C)[C@H](NS(=O)(=O)c1ccc2c(c1)oc1ccc(-c3nc4ccc(F)cc4s3)cc12)C(=O)O [Compound 209, (S)-2-(8-(6-fluorobenzo[d]thiazol-2-yl)dibenzo[b,d]furan-3-sulfonamido)-3-methylbutanoic acid]",< 1.5 nM
7,"Cc1ccc2nc(-c3ccc4oc5cc(S(=O)(=O)N[C@H](C(=O)O)C(C)C)ccc5c4c3)sc2c1 [Compound 210, (S)-3-methyl-2-(8-(6-methylbenzo[d]thiazol-2-yl)dibenzo[b,d]furan-3-sulfonamido)butanoic acid]",12 nM
8,"CC(C)[C@H](NS(=O)(=O)c1ccc2c(c1)oc1ccc(-c3ccc(-c4ccno4)s3)cc12)C(=O)O [Compound 211, (S)-2-(8-(5-(isoxazol-5-yl)thiophen-2-yl)dibenzo[b,d]furan-3-sulfonamido)-3-methylbutanoic acid]",295 nM
9,"CC(C)[C@H](NS(=O)(=O)c1ccc2c(c1)oc1ccc(-c3ncc(CN4CCN(C)CC4)s3)cc12)C(=O)O [Compound 212, (S)-3-methyl-2-(8-(5-((4-methylpiperazin-1-yl)methyl)thiazol-2-yl)dibenzo[b,d]furan-3-sulfonamido)butanoic acid]",86 nM
10,"CCCN(Cc1cnc(-c2ccc3oc4cc(S(=O)(=O)N[C@H](C(=O)O)C(C)C)ccc4c3c2)s1)CC1CC1 [Compound 213, (S)-2-(8-(5-(((cyclopropylmethyl)(propyl)amino)methyl)thiazol-2-yl)dibenzo[b,d]furan-3-sulfonamido)-3-methylbutanoic acid]",40 nM
11,"CC(C)[C@H](NS(=O)(=O)c1ccc2c(c1)oc1ccc(-c3ncc(Cn4cccn4)s3)cc12)C(=O)O [Compound 214, (S)-2-(8-(5-((1H-pyrazol-1-yl)methyl)thiazol-2-yl)dibenzo[b,d]furan-3-sulfonamido)-3-methylbutanoic acid]",3.7 nM
12,"CC(C)[C@H](NS(=O)(=O)c1ccc2c(c1)oc1ccc(-c3ncc(CO)s3)cc12)C(=O)O [Compound 215, (S)-2-(8-(5-(hydroxymethyl)thiazol-2-yl)dibenzo[b,d]furan-3-sulfonamido)-3-methylbutanoic acid]",2.4 nM
13,"CC(C)[C@H](NS(=O)(=O)c1ccc2c(c1)oc1ccc(-c3ccc(-c4ccon4)s3)cc12)C(=O)O [Compound 216, (S)-2-(8-(5-(isoxazol-3-yl)thiophen-2-yl)dibenzo[b,d]furan-3-sulfonamido)-3-methylbutanoic acid]",4.5 nM
14,"CC(C)[C@H](NS(=O)(=O)c1ccc2c(c1)oc1ccc(-c3nc(Br)cs3)cc12)C(=O)O [Compound 217, (S)-2-(8-(4-bromothiazol-2-yl)dibenzo[b,d]furan-3-sulfonamido)-3-methylbutanoic acid]",< 1.5 nM
15,"CC(C)[C@H](NS(=O)(=O)c1ccc2c(c1)oc1ccc(-c3nc4c(F)cccc4s3)cc12)C(=O)O [Compound 218, (S)-2-(8-(4-fluorobenzo[d]thiazol-2-yl)dibenzo[b,d]furan-3-sulfonamido)-3-methylbutanoic acid]",< 1.5 nM
16,"CC(C)[C@H](NS(=O)(=O)c1ccc2c(c1)oc1ccc(-c3nc4cc(F)ccc4s3)cc12)C(=O)O [Compound 219, (S)-2-(8-(5-fluorobenzo[d]thiazol-2-yl)dibenzo[b,d]furan-3-sulfonamido)-3-methylbutanoic acid]",< 1.5 nM
17,"CC(C)[C@H](NS(=O)(=O)c1ccc2c(c1)oc1ccc(-c3nc4cc(F)c(F)cc4s3)cc12)C(=O)O [Compound 220, (S)-2-(8-(5,6-difluorobenzo[d]thiazol-2-yl)dibenzo[b,d]furan-3-sulfonamido)-3-methylbutanoic acid]",< 1.5 nM
18,"CC(C)[C@H](NS(=O)(=O)c1ccc2c(c1)oc1ccc(-c3nc4ccc(OC(F)(F)F)cc4s3)cc12)C(=O)O [Compound 221, (S)-3-methyl-2-(8-(6-(trifluoromethoxy)benzo[d]thiazol-2-yl)dibenzo[b,d]furan-3-sulfonamido)butanoic acid]",1.7 nM
19,"CC(C)[C@H](NS(=O)(=O)c1ccc2c(c1)oc1ccc(-c3nc4c(F)c(F)c(F)cc4s3)cc12)C(=O)O [Compound 222, (S)-3-methyl-2-(8-(4,5,6-trifluorobenzo[d]thiazol-2-yl)dibenzo[b,d]furan-3-sulfonamido)butanoic acid]",4.9 nM
20,"COc1cccc2sc(-c3ccc4oc5cc(S(=O)(=O)N[C@H](C(=O)O)C(C)C)ccc5c4c3)nc12 [Compound 223, (S)-2-(8-(4-methoxybenzo[d]thiazol-2-yl)dibenzo[b,d]furan-3-sulfonamido)-3-methylbutanoic acid]",13 nM
21,"CC(C)[C@H](NS(=O)(=O)c1ccc2c(c1)oc1ccc(-c3ncc(Cl)s3)cc12)C(=O)O [Compound 224, (S)-2-(8-(5-chlorothiazol-2-yl)dibenzo[b,d]furan-3-sulfonamido)-3-methylbutanoic acid]",< 1.5 nM
22,"COc1ccc2sc(-c3ccc4oc5cc(S(=O)(=O)N[C@H](C(=O)O)C(C)C)ccc5c4c3)nc2c1 [Compound 225, (S)-2-(8-(5-methoxybenzo[d]thiazol-2-yl)dibenzo[b,d]furan-3-sulfonamido)-3-methylbutanoic acid]",< 1.5 nM
23,"CC(C)[C@H](NS(=O)(=O)c1ccc2c(c1)oc1cc(-c3nc4ccccc4s3)ccc12)C(=O)O [Compound 226, (S)-2-(7-(benzo[d]thiazol-2-yl)dibenzo[b,d]furan-3-sulfonamido)-3-methylbutanoic acid]",1.7 nM
24,"CC(C)[C@H](NS(=O)(=O)c1ccc2c(c1)oc1cc(-c3nc4ccccc4o3)ccc12)C(=O)O [Compound 227, (S)-2-(7-(benzo[d]oxazol-2-yl)dibenzo[b,d]furan-3-sulfonamido)-3-methylbutanoic acid]",6.1 nM

# Source: patent publication US20100227859A1, “TRICYCLIC COMPOUNDS AS MATRIX METALLOPROTEINASE INHIBITORS” (priority 2007, published 2010)
